In paper PMC10600239, “Selective MCL-1 inhibitor ABBV-467 is efficacious in tumor models but is associated with cardiac troponin increases in patients” (Communications Medicine, 2023):
“And” between values parts separate entries of the source, which are not always exact repeats. Equal values may be shown once.

Test system: troponin
Experiment: Troponin monitoring in phase 1 patients
Type: in vivo, human
Conditions: for Troponin I, Local Lab: reference range 2.3 to 20 ng/L; for Troponin T: patient, normal range 0-0.014
Protocol: Blood samples for plasma ABBV-467 concentration analysis were collected on days 1, 2, 3, and 15–17 of cycle 1 as well as on days 1 of cycles for PK analysis. Plasma samples of ABBV-467 were quantified using a validated LC-tandem MS with a lower limit of detection of 3 ng/mL. ABBV-467 PK parameters were calculated using standard non-compartmental approaches with Phoenix, WinNonlin (Version 8.0, Certara). AE severity was graded according to the National Cancer Institute Common Terminology Criteria for Adverse Events v5.0 for up to 30 days after the last dose. Analyses of AEs will include only treatment-emergent AEs. Triplicate ECGs were performed on days 1, 2, 15, and 16 of cycle 1. […] An echocardiogram was performed at screening and day 1 of cycle 2 and cycle 6. […]
Creatine Phosphokinase and Troponin Enzymes
Blood samples will be collected on the days specified in Section 2 for analysis of creatine phosphokinase and troponin serum concentrations. Clinical significance of these enzymes will be evaluated within the […]
context of the study. Samples should also be obtained as clinically indicated in the opinion of the investigator.
Table 9. Creatine Phosphokinase and Troponin Sampling Times […]
4, 8, 24, and 48 hours post-EOI
4, 8, 24 and 48 hours post-EOI
Sample times are relative to ABBV-467 infusion. […]

[1] = of the 4 patients with elevations

Cc1c(Cl)c2c(Cl)c(C)c1-c1c(-c3ccc(F)cc3)sc3ncnc(c13)O[C@@H](C(=O)O)Cc1cc(ccc1OCc1ccnc(-c3ccc(OC[C@H]4COCCO4)cc3)n1)OC[C@@H](CN1CCN(C)CC1)O2 [ABBV-467]
Troponin I, Central Laboratory (Patient 1, C1D1, study day 1, reference range ≤ 0.04 ng/mL, Advia Centaur TnI-Ultra Assay): <0.03 ng/mL | Troponin I, Central Laboratory (Patient 1, C1D2, study day 2, reference range ≤ 0.04 ng/mL): <0.03 ng/mL | Troponin I, Central Laboratory (Patient 1, C1D15, study day 15, reference range ≤ 0.04 ng/mL): <0.03 ng/mL | Troponin I, Central Laboratory (Patient 1, C1D16, study day 16, reference range ≤ 0.04 ng/mL): <0.03 ng/mL | Troponin I, Central Laboratory (Patient 1, C1D17, study day 17, reference range ≤ 0.04 ng/mL): <0.03 ng/mL | Troponin I, Central Lab (Patient 2, C1D1, study day 1, reference range ≤0.04 ng/mL): <0.03 ng/mL | Troponin I, Central Lab (Patient 2, C1D2, study day 2, reference range ≤0.04 ng/mL): <0.03 ng/mL | Troponin I, Central Lab (Patient 2, C1D3, study day 3, reference range ≤0.04 ng/mL): <0.03 ng/mL | Troponin I, Central Lab (Patient 2, C1D8, study day 8, reference range ≤0.04 ng/mL): <0.03 ng/mL | Troponin I, Central Lab (Patient 2, C1D16, study day 16, 4 hr postdose, reference range ≤0.04 ng/mL): 0.24 (4 hr postdose) ng/ml | Troponin I, Central Lab (Patient 2, C1D16, study day 16, 8 hr postdose, reference range ≤0.04 ng/mL): <0.03 (8 hr postdose) ng/ml | Troponin I, Central Lab (Patient 2, C1D17, study day 17, reference range ≤0.04 ng/mL): 0.15 ng/mL | Troponin I, Central Lab (Patient 2, C1D18, study day 18, reference range ≤0.04 ng/mL): 0.08 ng/mL | Troponin I, Local Lab (Patient 3, C1D1, study day 1, Beckman Coulter ACCESS high sensitivity Troponin I assay): 8.1 ng/L | Troponin I, Central Lab (Patient 3, C1D1, study day 1, reference range ≤ 0.04 ng/mL): <0.03 ng/mL | Troponin I, Local Lab (Patient 3, C1D2, study day 2): 7.3 ng/L | Troponin I, Central Lab (Patient 3, C1D2, study day 2, reference range ≤ 0.04 ng/mL): <0.03 ng/mL | Troponin I, Local Lab (Patient 3, C1D3, study day 3): 10.2 ng/L | Troponin I, Central Lab (Patient 3, C1D3, study day 3, reference range ≤ 0.04 ng/mL): <0.03 ng/mL | Troponin I, Local Lab (Patient 3, C1D4, study day 4): 7.4 ng/L | Troponin I, Local Lab (Patient 3, C1D5, study day 5): 7.3 ng/L | Troponin I, Local Lab (Patient 3, C1D9, study day 9): 7.8 ng/L | Troponin I, Local Lab (Patient 3, C1D11, study day 11): 37.7 ng/L | Troponin I, Local Lab (Patient 3, C1D12, study day 12): 27.2 ng/L | Troponin I, Central Lab (Patient 3, C1D12, study day 12, reference range ≤ 0.04 ng/mL): 0.05 ng/mL | Troponin I, Local Lab (Patient 3, C1D15 (No infusion; drug discontinued), study day 15): 16.5 ng/L | Troponin I, Central Lab (Patient 4, C1D1, study day 1, 4hr postdose, reference range ≤ 0.04 ng/mL): <0.03 (4hr postdose) ng/ml | Troponin I, Central Lab (Patient 4, C1D1, study day 1, 8hr postdose, reference range ≤ 0.04 ng/mL): <0.03 (8hr postdose) ng/ml | Troponin I, Central Lab (Patient 4, C1D1, study day 1, predose, reference range ≤ 0.04 ng/mL): <0.03 (predose) ng/ml | Troponin I, Central Lab (Patient 4, C1D2, study day 2, reference range ≤ 0.04 ng/mL): <0.03 ng/mL | Troponin I, Central Lab (Patient 4, C1D3, study day 3, reference range ≤ 0.04 ng/mL): <0.03 ng/mL | Troponin I, Central Lab (Patient 4, C1D15, study day 15, 4 hr postdose, reference range ≤ 0.04 ng/mL): 0.06 (4 hr postdose) ng/ml | Troponin I, Central Lab (Patient 4, C1D15, study day 15, 8 hr postdose, reference range ≤ 0.04 ng/mL): 0.04 ( 8 hr postdose) ng/ml | Troponin I, Central Lab (Patient 4, C1D15, study day 15, predose, reference range ≤ 0.04 ng/mL): 0.04 (predose) ng/ml | Troponin I, Central Lab (Patient 4, C1D16, study day 16, reference range ≤ 0.04 ng/mL): 0.04 ng/mL | Troponin I, Central Lab (Patient 4, C1D17, study day 17, reference range ≤ 0.04 ng/mL): 0.05 ng/mL | Troponin I, Central Lab (Patient 4, C2D1, study day 29, postdose, reference range ≤ 0.04 ng/mL): <0.03 (postdose) ng/ml | Troponin I, Central Laboratory (Patient 5, C1D1 4hr Post EOI, study day 1, reference range ≤0.04 ng/mL): <0.03 ng/mL | Troponin I, Central Laboratory (Patient 5, C1D1 8hr post EOI, study day 1, reference range ≤0.04 ng/mL): <0.03 ng/mL | Troponin I, Central Laboratory (Patient 5, C1D1 Predose, study day 1, reference range ≤0.04 ng/mL): <0.03 ng/mL | Troponin I, Central Laboratory (Patient 5, C1D2 24h post EOI, study day 2, reference range ≤0.04 ng/mL): <0.03 ng/mL | Troponin I, Central Laboratory (Patient 5, C1D3 48hr Post EOI, study day 3, reference range ≤0.04 ng/mL): <0.03 ng/mL | Troponin I, Central Laboratory (Patient 5, C1D15 4hr Post EOI, study day 15, reference range ≤0.04 ng/mL): <0.03 ng/mL | Troponin I, Central Laboratory (Patient 5, C1D15 8h post EOI, study day 15, reference range ≤0.04 ng/mL): <0.03 ng/mL | Troponin I, Central Laboratory (Patient 5, C1D15 Predose, study day 15, reference range ≤0.04 ng/mL): <0.03 ng/mL | Troponin I, Central Laboratory (Patient 5, C1D16 24h post EOI, study day 16, reference range ≤0.04 ng/mL): <0.03 ng/mL | Troponin I, Central Laboratory (Patient 5, C1D17 48hr Post EOI, study day 17, reference range ≤0.04 ng/mL): <0.03 ng/mL | Troponin I, Central Laboratory (Patient 6, C1D1 4hr Post EOI, study day 1, reference range ≤0.04 ng/mL): <0.03 ng/mL | Troponin I, Central Laboratory (Patient 6, C1D1 8hr post EOI, study day 1, reference range ≤0.04 ng/mL): <0.03 ng/mL | Troponin I, Central Laboratory (Patient 6, C1D1 Predose, study day 1, reference range ≤0.04 ng/mL): <0.03 ng/mL | Troponin I, Central Laboratory (Patient 6, C1D2 24h post EOI, study day 2, reference range ≤0.04 ng/mL): <0.03 ng/mL | Troponin I, Central Laboratory (Patient 6, C1D3 48hr Post EOI, study day 3, reference range ≤0.04 ng/mL): <0.03 ng/mL | Troponin I, Central Laboratory (Patient 6, C1D15 4hr Post EOI, study day 15, reference range ≤0.04 ng/mL): <0.03 ng/mL | Troponin I, Central Laboratory (Patient 6, C1D15 8h post EOI, study day 15, reference range ≤0.04 ng/mL): <0.03 ng/mL | Troponin I, Central Laboratory (Patient 6, C1D15 Predose, study day 15, reference range ≤0.04 ng/mL): <0.03 ng/mL | Troponin I, Central Laboratory (Patient 6, C1D16 24h post EOI, study day 16, reference range ≤0.04 ng/mL): <0.03 ng/mL | Troponin I, Central Laboratory (Patient 6, C1D17 48hr Post EOI, study day 17, reference range ≤0.04 ng/mL): <0.03 ng/mL | Troponin I, Central Laboratory (Patient 7, C1D1 4hr Post EOI, study day 1, reference range ≤0.04 ng/mL): <0.03 ng/mL | Troponin I, Central Laboratory (Patient 7, C1D1 8hr post EOI, study day 1, reference range ≤0.04 ng/mL): <0.03 ng/mL | Troponin I, Central Laboratory (Patient 7, C1D1 Predose, study day 1, reference range ≤0.04 ng/mL): <0.03 ng/mL | Troponin I, Central Laboratory (Patient 7, C1D2 24h post EOI, study day 2, reference range ≤0.04 ng/mL): <0.03 ng/mL | Troponin I, Central Laboratory (Patient 7, C1D3 48hr Post EOI, study day 3, reference range ≤0.04 ng/mL): <0.03 ng/mL | Troponin I, Central Laboratory (Patient 7, C1D15 4hr Post EOI, study day 15, reference range ≤0.04 ng/mL): <0.03 ng/mL | Troponin I, Central Laboratory (Patient 7, C1D15 8h post EOI, study day 15, reference range ≤0.04 ng/mL): <0.03 ng/mL | Troponin I, Central Laboratory (Patient 7, C1D15 Predose, study day 15, reference range ≤0.04 ng/mL): <0.03 ng/mL | Troponin I, Central Laboratory (Patient 7, C1D16 24h post EOI, study day 16, reference range ≤0.04 ng/mL): <0.03 ng/mL | Troponin I, Central Laboratory (Patient 7, C1D17 48hr Post EOI, study day 17, reference range ≤0.04 ng/mL): <0.03 ng/mL | Troponin I, Central Laboratory (Patient 8, C1D1 4hr Post EOI, study day 1, reference range ≤0.04 ng/mL): <0.03 ng/mL | Troponin I, Central Laboratory (Patient 8, C1D1 8hr post EOI, study day 1, reference range ≤0.04 ng/mL): <0.03 ng/mL | Troponin I, Central Laboratory (Patient 8, C1D1 Predose, study day 1, reference range ≤0.04 ng/mL): <0.03 ng/mL | Troponin I, Central Laboratory (Patient 8, C1D2 24h post EOI, study day 2, reference range ≤0.04 ng/mL): <0.03 ng/mL | Troponin I, Central Laboratory (Patient 8, C1D3 48hr Post EOI, study day 3, reference range ≤0.04 ng/mL): <0.03 ng/mL | Troponin I, Central Laboratory (Patient 8, C1D15 4hr Post EOI, study day 15, reference range ≤0.04 ng/mL): <0.03 ng/mL | Troponin I, Central Laboratory (Patient 8, C1D15 8h post EOI, study day 15, reference range ≤0.04 ng/mL): <0.03 ng/mL | Troponin I, Central Laboratory (Patient 8, C1D15 Predose, study day 15, reference range ≤0.04 ng/mL): <0.03 ng/mL | Troponin I, Central Laboratory (Patient 8, C1D16 24h post EOI, study day 16, reference range ≤0.04 ng/mL): <0.03 ng/mL | Troponin I, Central Laboratory (Patient 8, C1D17 48hr Post EOI, study day 17, reference range ≤0.04 ng/mL): 0.03 ng/mL | relation of grade ≥1 elevated troponin to peak plasma concentration and AUC (across the studied dose range): unrelated | patients with troponin elevations (all doses, N = 8): 4 (50%) patients (%) | patients with troponin elevations (dose 0.32 mg/kg): 1 (12.5%) patients (%) | first blood draw post-infusion at which troponin elevations were detectable (human, in vivo): 4 h | patients with grade 1 troponin elevation [1]: 3 (75%) patients (%) | patients with grade 3 troponin elevation [1]: 1 (25%) patients (%) | Troponin T (LBDY 1): 0.011 µg/L | Troponin T (LBDY 9): 0.021 µg/L | Troponin T (LBDY 11): 0.038 µg/L | Troponin T (LBDY 12): 0.032 µg/L | Troponin T (LBDY 15): 0.018 µg/L and 0.019 µg/L | Troponin T (LBDY 16): 0.021 µg/L | Troponin T (LBDY 17): 0.024 µg/L | Troponin T (LBDY 18): 0.027 µg/L | Troponin T (LBDY 19): 0.025 µg/L | Troponin T (LBDY 22): 0.015 µg/L | Troponin T (LBDY 23): 0.019 µg/L | Troponin T (LBDY 25): 0.024 µg/L | Troponin T (LBDY 26): 0.019 µg/L | Troponin T (LBDY 30 (Note: 29)): 0.021 µg/L | Troponin T (LBDY 36 (Note: missing)): 0.018 µg/L | Troponin T (LBDY 61 (Note: missing)): 0.016 µg/L | troponin I, grade 3 elevation, multiple of upper limit of normal (single patient): 1.9 × upper limit of normal
